According to publication PMC4203769, “The “Genomic Storm” Induced by Bacterial Endotoxin Is Calmed by a Nuclear Transport Modifier That Attenuates Localized and Systemic Inflammation” (PLoS ONE, 2014):
Where “and” joins values, the source holds several entries; their conditions need not be identical. Equal values may be shown once. Entries after “also recorded” stand apart in the source; their conditions may differ. Positions of bridges follow the written chain, without caps; N, C: chain ends. Residues, ends and D or L forms follow the SMILES beside them.

Legend:
[1] = system: mouse blood cells and organs; conditions: after i.p. injection; receptor- and endocytosis-independent mechanism; cited from earlier work
Procedure: NTM is rapidly delivered (within 30–60 min after i.p. injection) through a receptor-and endocytosis-independent mechanism to mouse blood cells and organs where it reaches sufficient intracellular concentration to engender localized (lung) and systemic (endotoxic shock) anti-inflammatory effects. Thus, the microvascular compartment of multiple organs that are vulnerable to LPS toxicity (e.g. lungs, liver, and kidneys) can be protected, [22]. Unlike anti-inflammatory glucocorticosteroids which produced discordant results in sepsis clinical trials, [33] and have potential ...

[2] = Solubility of peptides in water; format: physicochemical
Description: A fragment-linked peptide strategy to analyze signal-dependent nuclear transport is based on fusing a motif from the nuclear localization sequence (NLS) region of the NF-κB1/p50 subunit with the signal sequence hydrophobic region (SSHR) of human fibroblast growth factor 4 [7], [19]. NLS- and SSHR-containing NTMs (SN50, cSN50 and cSN50.1; see Table 1 for their composition and solubility) were designed to function at the nuclear transport level by binding to importins α during stimulus-initiated signaling and thereby modulate nuclear import of NLS-bearing SRTFs. The SSHR motif allows peptides to cross the plasma membrane of cells in culture or in experimental animals through an ATP- and endosome-independent mechanism. […] The functional utility of NTMs has been reported in numerous preclinical models of inflammation caused by microbial and autoimmune insults, [21]–[26].

[3] = system: primary macrophages challenged with LPS; test: Cell viability of LPS-challenged primary macrophages; format: cell-based, mouse (C57BL/6); conditions: LPS-challenged BMDMs, 30 µM peptide; data not shown; listed as NTM

Row | SMILES | time to delivery to mouse blood cells and organs [1] [min] | Solubility in Water [2] | effect on cell viability / cytotoxicity [3]
1 | CSCC[C@@H]1NC(=O)[C@H](CC(C)C)NC(=O)[C@H](CCCCN)NC(=O)[C@H](CCC(N)=O)NC(=O)[C@H](CCCNC(=N)N)NC(=O)[C@H](CCCCN)NC(=O)[C@H](CCCNC(=N)N)NC(=O)[C@H](CCC(N)=O)NC(=O)[C@H](C(C)C)NC(=O)[C@@H](NC(=O)[C@@H]2CCCN2C(=O)[C@H](C)NC(=O)[C@H](CC(C)C)NC(=O)[C@H](CC(C)C)NC(=O)[C@H](C)NC(=O)[C@H](CC(C)C)NC(=O)[C@H](CC(C)C)NC(=O)[C@@H](NC(=O)[C@H](C)NC(=O)[C@@H]2CCCN2C(=O)[C@H](CC(C)C)NC(=O)[C@H](CC(C)C)NC(=O)[C@H](C)NC(=O)[C@@H](NC(=O)[C@H](C)NC(=O)[C@H](C)N)C(C)C)C(C)C)CSSC[C@@H](C(=O)O)NC(=O)[C@@H]2CCCN2C1=O [cSN50.1] (H-AAVALLPAVLLALLAPCVQRKRQKLMPC-OH; disulfide 17-28) | 30 to 60 | 100 mg/mL and 33.5 mM | without altering expression of housekeeping genes or being cytotoxic; also recorded: not associated with changes in cell viability
2 | CSCC[C@@H]1NC(=O)[C@H](CC(C)C)NC(=O)[C@H](CCCCN)NC(=O)[C@H](CCC(N)=O)NC(=O)[C@H](CCCNC(=N)N)NC(=O)[C@H](CCCCN)NC(=O)[C@H](CCCNC(=N)N)NC(=O)[C@H](CCC(N)=O)NC(=O)[C@H](C(C)C)NC(=O)[C@H](Cc2ccc(O)cc2)NC(=O)[C@@H](NC(=O)[C@@H]2CCCN2C(=O)[C@H](C)NC(=O)[C@H](CC(C)C)NC(=O)[C@H](CC(C)C)NC(=O)[C@H](C)NC(=O)[C@H](CC(C)C)NC(=O)[C@H](CC(C)C)NC(=O)[C@@H](NC(=O)[C@H](C)NC(=O)[C@@H]2CCCN2C(=O)[C@H](CC(C)C)NC(=O)[C@H](CC(C)C)NC(=O)[C@H](C)NC(=O)[C@@H](NC(=O)[C@H](C)NC(=O)[C@H](C)N)C(C)C)C(C)C)CSSC[C@@H](C(=O)O)NC(=O)[C@@H]2CCCN2C1=O [cSN50, reference compound] (H-AAVALLPAVLLALLAPCYVQRKRQKLMPC-OH; disulfide 17-29) |  | 38 mg/mL and 12.1 mM | 
